Data as given in ChEMBL document CHEMBL1671707, “Mycobacterium tuberculosis dihydrofolate reductase is not a target relevant to the antitubercular activity of isoniazid” (Antimicrob Agents Chemother, 2010).
In brackets after ≈: the same amount, converted by molar mass. Activity calls are given as the source filed them. No cut-off for these calls is given here.

What was measured:
[1] = test system: Mycolicibacterium smegmatis; experiment: Antimicrobial activity against Mycobacterium smegmatis MC2 4517 harboring pYUB1062 plasmid overexpressing Mycobacterium tuberculosis Rv3777 probable oxidoreductase gene by broth microdilution method; format: functional
[2] = test system: Mycolicibacterium smegmatis; experiment: Antimicrobial activity against Mycobacterium smegmatis MC2 4517 harboring pYUB1062 plasmid overexpressing Mycobacterium tuberculosis Rv3248c SahH gene by broth microdilution method; format: functional
[3] = test system: Mycolicibacterium smegmatis; experiment: Antimicrobial activity against Mycobacterium smegmatis MC2 4517 harboring pYUB1062 plasmid overexpressing Mycobacterium tuberculosis Rv0091 Mtn/Sah gene by broth microdilution method; format: functional, organism-based
[4] = test system: Mycolicibacterium smegmatis; experiment: Antimicrobial activity against Mycobacterium smegmatis MC2 4517 harboring pYUB1062 plasmid overexpressing Mycobacterium tuberculosis Rv0926c unknown gene by broth microdilution method; format: functional
[5] = test system: Mycolicibacterium smegmatis; experiment: Antimicrobial activity against Mycobacterium smegmatis MC2 4517 harboring pYUB1062 plasmid overexpressing Mycobacterium tuberculosis Rv0753c MmsA gene by broth microdilution method; format: functional
[6] = test system: Mycolicibacterium smegmatis; experiment: Antimicrobial activity against Mycobacterium smegmatis MC2 4517 harboring pYUB1062 plasmid overexpressing Mycobacterium tuberculosis Rv1187 RocA gene by broth microdilution method; format: functional
[7] = test system: Mycolicibacterium smegmatis; experiment: Antimicrobial activity against Mycobacterium smegmatis MC2 4517 harboring pYUB1062 plasmid overexpressing Mycobacterium tuberculosis Rv2766 FabG5 gene by broth microdilution method; format: functional
[8] = test system: Mycolicibacterium smegmatis; experiment: Antimicrobial activity against Mycobacterium smegmatis MC2 5089 harboring pYUB1062 plasmid overexpressing Mycobacterium tuberculosis Rv1484 InhA gene by broth microdilution method; format: functional
[9] = test system: Mycolicibacterium smegmatis; experiment: Antimicrobial activity against Mycobacterium smegmatis MC2 4517 harboring pYUB1062 plasmid overexpressing Mycobacterium tuberculosis Rv2671 RibD gene by broth microdilution method; format: functional
[10] = test system: Mycolicibacterium smegmatis; experiment: Antimicrobial activity against Mycobacterium smegmatis MC2 4517 harboring pYUB1062 plasmid overexpressing Mycobacterium tuberculosis Rv2691 CeoB/TrKA gene by broth microdilution method; format: functional
[11] = test system: Mycolicibacterium smegmatis; experiment: Antimicrobial activity against Mycobacterium smegmatis MC2 4517 harboring pYUB1062 plasmid overexpressing Mycobacterium tuberculosis Rv2971 probable oxidoreductase gene by broth microdilution method; format: functional, organism-based
[12] = test system: Mycolicibacterium smegmatis; experiment: Antimicrobial activity against Mycobacterium smegmatis MC2 5097 harboring pYUB1062 plasmid overexpressing Mycobacterium tuberculosis Rv2763c DfrA gene by broth microdilution method; format: functional
[13] = test system: Mycolicibacterium smegmatis; experiment: Antimicrobial activity against Mycobacterium smegmatis MC2 4517 harboring pYUB1062 plasmid overexpressing Mycobacterium tuberculosis Rv2858c Aldc gene by broth microdilution method; format: functional
[14] = test system: Mycolicibacterium smegmatis; experiment: Antimicrobial activity against Mycobacterium smegmatis MC2 4517 harboring pYUB1062 plasmid overexpressing Mycobacterium tuberculosis Rv0155 PntAA gene by broth microdilution method; format: functional
[15] = test system: Mycolicibacterium smegmatis; experiment: Antimicrobial activity against Mycobacterium smegmatis MC2 4517 harboring pYUB1062 plasmid overexpressing Mycobacterium tuberculosis Rv0468 FadB2 gene by broth microdilution method; format: functional
[16] = test system: Mycolicibacterium smegmatis; experiment: Antimicrobial activity against Mycobacterium smegmatis MC2 4517 harboring pYUB1062 plasmid overexpressing Mycobacterium tuberculosis Rv1996 universal stress protein gene by broth microdilution method; format: functional
[17] = test system: Mycolicibacterium smegmatis; experiment: Antimicrobial activity against Mycobacterium smegmatis MC2 4517 harboring pYUB1062 plasmid overexpressing Mycobacterium tuberculosis Rv1059 unknown gene by broth microdilution method; format: functional
[18] = test system: Mycolicibacterium smegmatis; experiment: Antimicrobial activity against Mycobacterium smegmatis MC2 4517 harboring pYUB1062 plasmid overexpressing Mycobacterium tuberculosis Rv2623 universal stress protein gene by broth microdilution method; format: functional
[19] = test system: Mycobacterium tuberculosis; experiment: Antimicrobial activity against Mycobacterium tuberculosis H37Rv harboring pMV261::InhA plasmid by MTT assay; format: functional, organism-based
[20] = test system: Mycobacterium tuberculosis; experiment: Ratio of MIC for Mycobacterium tuberculosis H37RV harboring pMV261::InhA plasmid to MIC for wild-type Mycobacterium tuberculosis H37Rv; format: functional
[21] = test system: Mycobacterium tuberculosis; experiment: Antimicrobial activity against Mycobacterium tuberculosis H37Rv harboring pMV261::dfrA plasmid by MTT assay; format: functional, organism-based

| Structure (SMILES) | MIC [1] | MIC [2] | MIC [3] | MIC [4] | MIC [5] | MIC [6] | MIC [7] | MIC [8] | MIC [9] | MIC [10] | MIC [11] | MIC [12] | MIC [13] | MIC [14] | MIC [15] | MIC [16] | MIC [17] | MIC [18] | other results |
| --- | --- | --- | --- | --- | --- | --- | --- | --- | --- | --- | --- | --- | --- | --- | --- | --- | --- | --- | --- |
| CCc1cc(C(N)=S)ccn1 [ETHIONAMIDE] | 9.4 µg/mL (≈ 56.5 µM) | 9.4 µg/mL (≈ 56.5 µM) | inactive | 9.4 µg/mL (≈ 56.5 µM) | 9.4 µg/mL (≈ 56.5 µM) | 9.4 µg/mL (≈ 56.5 µM) | 9.4 µg/mL (≈ 56.5 µM) | 150 µg/mL (≈ 902 µM) | 9.4 µg/mL (≈ 56.5 µM) | 9.4 µg/mL (≈ 56.5 µM) | inactive | 9.4 µg/mL (≈ 56.5 µM) | 9.4 µg/mL (≈ 56.5 µM) | 9.4 µg/mL (≈ 56.5 µM) | 9.4 µg/mL (≈ 56.5 µM) | 9.4 µg/mL (≈ 56.5 µM) | 9.4 µg/mL (≈ 56.5 µM) | 9.4 µg/mL (≈ 56.5 µM) |  |
| NNC(=O)c1ccncc1 [ISONIAZID] | 4.7 µg/mL (≈ 34.3 µM) | 4.7 µg/mL (≈ 34.3 µM) | inactive | 4.7 µg/mL (≈ 34.3 µM) | 4.7 µg/mL (≈ 34.3 µM) | 4.7 µg/mL (≈ 34.3 µM) | 4.7 µg/mL (≈ 34.3 µM) | 300 µg/mL (≈ 2190 µM) | 4.7 µg/mL (≈ 34.3 µM) | 4.7 µg/mL (≈ 34.3 µM) | inactive | 4.7 µg/mL (≈ 34.3 µM) | 4.7 µg/mL (≈ 34.3 µM) | 4.7 µg/mL (≈ 34.3 µM) | 4.7 µg/mL (≈ 34.3 µM) | 4.7 µg/mL (≈ 34.3 µM) | 4.7 µg/mL (≈ 34.3 µM) | 4.7 µg/mL (≈ 34.3 µM) | Activity [19]: inactive; Ratio [20]: 20; Activity [21]: Active |
